Target: T1, c-RAF (Homo sapiens, UniProt P04049)
T1 construct: gene RAF1
Experiment: c-RAF protein level change by immunofluorescence in A549 cells (with and without 17-AAG)
Assay type: cell-based

T1 sequence (P04049 whole entry): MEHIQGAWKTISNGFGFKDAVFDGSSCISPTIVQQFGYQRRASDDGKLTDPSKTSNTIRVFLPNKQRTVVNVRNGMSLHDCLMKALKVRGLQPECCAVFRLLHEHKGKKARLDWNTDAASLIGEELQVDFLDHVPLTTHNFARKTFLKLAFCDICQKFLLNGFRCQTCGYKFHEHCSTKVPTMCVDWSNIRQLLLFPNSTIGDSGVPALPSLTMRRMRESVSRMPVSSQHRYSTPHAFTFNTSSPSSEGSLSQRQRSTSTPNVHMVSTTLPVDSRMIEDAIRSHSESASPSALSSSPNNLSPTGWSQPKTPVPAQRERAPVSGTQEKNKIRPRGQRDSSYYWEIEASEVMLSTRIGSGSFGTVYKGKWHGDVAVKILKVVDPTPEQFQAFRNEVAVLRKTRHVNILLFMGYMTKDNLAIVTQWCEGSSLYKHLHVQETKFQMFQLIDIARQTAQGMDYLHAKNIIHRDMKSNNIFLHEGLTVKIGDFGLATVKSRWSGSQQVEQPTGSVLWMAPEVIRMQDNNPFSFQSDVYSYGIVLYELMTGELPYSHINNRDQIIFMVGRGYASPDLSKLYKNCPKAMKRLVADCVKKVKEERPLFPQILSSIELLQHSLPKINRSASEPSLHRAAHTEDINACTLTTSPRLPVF

## Cc1ccc(NC(=O)c2ccnc(C(F)(F)F)c2)cc1-c1cc(N2CCOCC2)nc(N2CC(O)C2)c1 [Novartis pan-RAF inhibitor]
  c-RAF protein level change by immunofluorescence in A549 cells (with and without): The interactions between c-RAF and these inhibitors are examples of a small molecule causing a direct effect on protein abundance

— article PMC6978363, “Chaperone mediated detection of small molecule target binding in cells” (Nature Communications, 2020)
